Results taken from PMC9820345, “Metal Complexes of a 5-Nitro-8-Hydroxyquinoline-Proline Hybrid with Enhanced Water Solubility Targeting Multidrug Resistant Cancer Cells” (International Journal of Molecular Sciences, 2022).
Read-outs that look alike come from different tables or passages of the source.

Legend:
[1] = design: method as in earlier work; details: pH 7.40, cited from earlier work
HSA site I (Trp-214) = target: T1, HSA site I (Trp-214) (Homo sapiens, UniProt P02768); design: method as in PMID 32500882; details: cited from earlier work
T1 construct: purchased Sigma-Aldrich (Darmstadt, Germany) A8763

HSA site II = target: T2, HSA site II (Homo sapiens, UniProt P02768); design: method as in PMID 32500882; details: cited from earlier work
T2 construct: purchased Sigma-Aldrich (Darmstadt, Germany) A8763

Colo205 [2] = tested on: Colo205; design: method as in PMID 32500882; details: 72 h exposure; cited from earlier work
Colo320 [3] = tested on: Colo320; design: method as in PMID 32500882; details: cited from earlier work
OATP1B1 = target: T3, OATP1B1 (Homo sapiens, UniProt Q9Y6L6); assay: OATP uptake assay, OATP1B1; type: cell-based; details: reference inhibitor; experiments not documented
T3 construct: expressed in transfected cells; host or cells: A431 epidermoid carcinoma cells
T3 sequence (Q9Y6L6 1-691): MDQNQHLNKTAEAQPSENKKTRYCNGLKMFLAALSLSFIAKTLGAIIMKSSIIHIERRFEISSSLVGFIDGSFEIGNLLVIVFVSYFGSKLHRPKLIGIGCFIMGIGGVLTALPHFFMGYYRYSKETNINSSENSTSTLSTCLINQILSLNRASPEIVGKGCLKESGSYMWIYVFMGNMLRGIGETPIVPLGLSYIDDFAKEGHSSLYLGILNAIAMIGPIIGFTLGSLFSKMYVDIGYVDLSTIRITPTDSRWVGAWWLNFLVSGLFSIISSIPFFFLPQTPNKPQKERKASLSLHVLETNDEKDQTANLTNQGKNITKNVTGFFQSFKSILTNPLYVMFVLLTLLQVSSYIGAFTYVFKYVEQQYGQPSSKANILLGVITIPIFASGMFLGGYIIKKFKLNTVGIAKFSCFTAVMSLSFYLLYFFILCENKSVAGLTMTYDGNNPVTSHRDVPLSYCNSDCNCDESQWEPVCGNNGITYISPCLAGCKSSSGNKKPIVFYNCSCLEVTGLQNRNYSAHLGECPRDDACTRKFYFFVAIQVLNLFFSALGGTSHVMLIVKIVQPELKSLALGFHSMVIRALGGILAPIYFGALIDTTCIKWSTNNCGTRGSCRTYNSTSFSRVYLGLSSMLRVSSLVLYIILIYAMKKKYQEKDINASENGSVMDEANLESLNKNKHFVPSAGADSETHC
Procedure: (§1) Cell lines: A431 cells overexpressing OATP1B1 or OATP2B1, and their mock transfected controls were generated and characterized previously. The cell lines were cultured in DMEM (Gibco, Thermofisher Scientific, Waltham, MA, USA), supplemented with 10% fetal bovine serum, 2 mM L-glutamine, 100 μg/mL streptomycin, and 100 units/mL penicillin at 37 °C and 5% CO2.
(§2) OATP uptake assay: Prior to the experiment, A431 cells (8 × 10^4/well) were seeded on 96-well plates in 200 μL cell culture medium. After 16–24 h, the cells were washed with 200 μL PBS, three times and pre-incubated with 20–200 μM HQNO2-L-Pro, or buffer without HQNO2-L-Pro for 5 min at 37 °C in 50 μL HBSS (Hank’s Balanced Salt Solution, pH 7.4; OATP1B1) or uptake buffer (pH 5.5; OATP2B1 [63]). The reaction was started by the addition of disulfopyrene (6,8-dihydroxy-1,3-pyrenedisulfonic acid disodium salt, Sigma, Darmstadt, Germany) at a final concentration of 10 μM (OATP1B1) or pyranine (8-hydroxypyrene-1,3-pyrenetrisulfonic acid trisodium salt, Sigma, Darmstadt, Germany) at a final concentration of 20 μM (OATP2B1), and the cells were further incubated at 37 °C for 10 min (OATP1B1) or 15 min (OATP2B1). The reaction was stopped by removing the supernatant after which the cells were washed three times with ice-cold PBS. Fluorescence (in 200 μL PBS) was determined using an Enspire plate reader (PerkinElmer, Waltham, MA, USA) with excitation/emission wavelengths of 460/510 nm. OATP-dependent transport was calculated by subtracting fluorescence measured in mock transfected cells. Transport activity was calculated based on the fluorescence signal in the absence (100%) of HQNO2-L-Pro. Experiments were repeated in at least three biological replicates.

OATP2B1 = target: T4, OATP2B1 (Homo sapiens, UniProt O94956); assay: OATP uptake assay, OATP2B1; type: cell-based; details: reference inhibitor; experiments not documented
T4 construct: expressed in transfected cells; host or cells: A431 epidermoid carcinoma cells
T4 sequence (O94956 1-709): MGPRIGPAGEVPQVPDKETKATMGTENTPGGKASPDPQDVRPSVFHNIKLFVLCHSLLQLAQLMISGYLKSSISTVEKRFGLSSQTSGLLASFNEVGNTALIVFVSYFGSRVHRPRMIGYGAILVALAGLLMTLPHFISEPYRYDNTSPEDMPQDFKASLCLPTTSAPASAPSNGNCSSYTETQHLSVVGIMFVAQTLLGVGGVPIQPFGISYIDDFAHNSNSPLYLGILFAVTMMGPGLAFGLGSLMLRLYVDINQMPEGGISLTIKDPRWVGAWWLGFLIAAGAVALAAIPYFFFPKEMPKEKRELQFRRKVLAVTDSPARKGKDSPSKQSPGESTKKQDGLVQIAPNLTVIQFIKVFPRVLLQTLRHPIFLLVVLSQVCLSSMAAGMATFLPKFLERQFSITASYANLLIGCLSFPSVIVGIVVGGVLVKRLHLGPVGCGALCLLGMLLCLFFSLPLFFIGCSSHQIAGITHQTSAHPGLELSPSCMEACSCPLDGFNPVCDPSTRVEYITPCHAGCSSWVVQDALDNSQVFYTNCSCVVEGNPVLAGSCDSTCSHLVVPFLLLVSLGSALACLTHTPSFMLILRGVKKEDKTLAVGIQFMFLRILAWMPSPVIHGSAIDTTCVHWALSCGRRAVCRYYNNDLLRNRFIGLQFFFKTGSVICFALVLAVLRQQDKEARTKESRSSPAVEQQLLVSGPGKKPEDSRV
Procedure: as §1, §2

MES-SA = assay: In vitro cytotoxicity, MES-SA cells (fluorescent protein readout); type: cell-based, human; details: Homo sapiens, MES-SA; 144 h exposure
From the text: (§3) Cell lines: all cell culture reagents were obtained from Sigma-Aldrich; plasticware was purchased from Sarstedt (Nümbrecht, Germany); Human colon Colo205 (chemo-sensitive, ATCC-CCL-222) and Colo320 (Pgp/MDR1-expressing, doxorubicin-resistant, ATCC-CCL-220.1) adenocarcinoma cell lines were purchased from LGC Promochem, Teddington, UK; MES-SA and MES-SA/Dx5 uterine sarcoma cell lines were obtained from ATCC, where they were characterized by DNA fingerprinting. The expression of the Pgp efflux pump of MES-SA/Dx5 was proven by Western blot analysis in our former report, and was also reported for the Colo320 cells. The MES-SA and MES-SA/Dx5 cells used in this study were previously engineered to express the fluorescent proteins mCherry and eGFP, respectively, by lentiviral transduction.
(§4) MES-SA cell lines were maintained in DMEM, supplemented with 10% fetal bovine serum, 5 mmol/L glutamine, and 50 units/mL penicillin and streptomycin. Cells were tested and resulted negative for mycoplasma contamination with the MycoAlert mycoplasma detection Kit (Lonza Group, Basel, Switzerland). One week prior to the cytotoxicity assays, Dx5 eGFP cells were selected in 500 nM doxorubicin for one passage to ensure the overexpression of P-glycoprotein.
(§5) Cytotoxicity assays: The tested compounds were dissolved in PBS buffer to prepare 5 mM stock solutions, which were diluted in complete culture medium.
(§6) In the case of the MES-SA and MES-SA/Dx5 cells, cell suspensions of the fluorescent cell lines were pre-mixed in a 1:1 ratio and seeded in 20 µL medium in a density of 2500 cells/well (1250 cells/well each) in a 384-well plate. After an overnight incubation, a serial dilution of the compounds was added to the plate in a final volume of 60 µL. The P-gp inhibitor tariquidar was added to the cells 15 min prior to the test compounds. After 144 h of incubation, plates were measured for the fluorescent intensity of mCherry (EX/EM: 585 nm/610 nm) and eGFP (EX/EM: 485 nm/510 nm). Cell seeding, aspiration of medium, and addition of drugs were performed by a Hamilton StarLet automated liquid handling robot.
(§7) Inhibition of the cell growth (expressed as IC50: inhibitory concentration that reduces by 50% the growth of the cells exposed to the tested compounds) was determined from the sigmoid curve where 100 − ((ODsample − ODmedium control)/(ODcell control − ODmedium control)) × 100 values were plotted against the logarithm of compound concentrations. Curves for the data obtained on Colo205 and Colo320 cells were fitted by GraphPad Prism software (2021, Graphpad Software, version 7.00, San Diego, CA, USA) using the sigmoidal dose–response model (comparing variable and fixed slopes). From the MES-SA cell data, the IC50 values were calculated by our custom program, written by J. Sessler in C#. The p values were calculated by Student’s t-test. The IC50 values were always obtained from at least three independent experiments.

MES-SA/Dx5 = assay: In vitro cytotoxicity, MES-SA/Dx5 cells (fluorescent protein readout); type: cell-based, human; details: Homo sapiens, MES-SA/Dx5; 144 h exposure
From the text: as §3, §4, §5, §6, §7

Colo205 [4] = assay: In vitro cytotoxicity, Colo205 cells (MTT); type: cell-based, human; details: Homo sapiens, COLO 205; 72 h exposure
From the text: as §3
(§8) The colon adenocarcinoma cells were cultured in RPMI 1640 medium supplemented with 10% heat-inactivated fetal bovine serum, 2 mM L-glutamine, 1 mM sodium pyruvate, and 100 mM HEPES. The cells were incubated at 37 °C, in a 5% CO2, 95% air atmosphere.
as §5
(§9) In the case of the Colo205 and Colo320 cells, two-fold serial dilutions were prepared in 100 μL medium. The semi-adherent colon adenocarcinoma cells were treated with Trypsin-Versene (EDTA) solution. They were adjusted to a density of 1 × 10^4 cells in 100 μL of RPMI 1640 medium and were added to each well, with the exception of the medium control wells. The final volume of the wells containing compounds and cells was 200 μL. The plates containing Colo205 and Colo320 cells were incubated at 37 °C for 72 h; at the end of the incubation period, 20 μL of 3-(4,5-dimethyl-2-thiazolyl)-2,5-diphenyl-2H-tetrazolium bromide (MTT) solution (from a stock solution of 5 mg/mL) was added to each well. After incubation at 37 °C for 4 h, 100 μL of sodium dodecyl sulfate (SDS) solution (10% in 0.01 M HCI) was added to each well, and the plates were further incubated at 37 °C overnight. Cell growth was determined by measuring the optical density (OD) at 540/630 nm with a Multiskan EX plate reader (Thermo Labsystems, Cheshire, WA, USA).
as §7, with “From the MES-SA cell data, the IC50 values were calculated by our custom program, written by J. Sessler in C#. The p values were calculated by Student’s t-test. The IC50 values were always obtained from at least three independent experiments.” left out

Colo320 [5] = assay: In vitro cytotoxicity, Colo320 cells (MTT); type: cell-based, human; details: Homo sapiens, COLO 320; 72 h exposure
From the text: as §3, §8, §5, §9, §7

T2 sequence (P02768 25-609): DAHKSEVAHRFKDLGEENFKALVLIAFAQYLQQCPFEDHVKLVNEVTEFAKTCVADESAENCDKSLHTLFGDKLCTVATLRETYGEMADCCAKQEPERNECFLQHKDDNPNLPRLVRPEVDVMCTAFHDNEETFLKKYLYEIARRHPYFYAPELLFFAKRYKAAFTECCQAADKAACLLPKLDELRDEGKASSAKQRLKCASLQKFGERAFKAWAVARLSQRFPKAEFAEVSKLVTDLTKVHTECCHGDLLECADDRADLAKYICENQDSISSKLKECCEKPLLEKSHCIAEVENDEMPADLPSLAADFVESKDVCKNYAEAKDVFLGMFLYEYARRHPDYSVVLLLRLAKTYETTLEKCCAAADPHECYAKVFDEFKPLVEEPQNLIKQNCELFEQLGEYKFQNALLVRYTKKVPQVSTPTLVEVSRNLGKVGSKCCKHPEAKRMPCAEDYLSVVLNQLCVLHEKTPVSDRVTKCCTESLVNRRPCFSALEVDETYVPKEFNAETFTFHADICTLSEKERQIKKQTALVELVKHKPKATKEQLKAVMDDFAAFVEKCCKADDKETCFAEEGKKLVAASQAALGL
T1 sequence (P02768 25-609): as above

In the case of `Cc1ccc(C(C)C)cc1.O=C(O)[C@@H]1CCC[NH+]1Cc1cc(Cl)c2ccc[n+]3c2c1[O][Ru-]3[Cl].[Cl-]` [RuCym-HQCl-L-Pro], the “log D7.4” value ([1]; 24 mM chloride) is listed as “+0.09 ± 0.03”, the “log D7.4” value ([1]; 100 mM chloride) is listed as “+0.46 ± 0.03” and the “quenching constant logKQ'” value (HSA site I (Trp-214)) is listed as 5.7. For the same molecule, the “DG marker displacement constant logKDG'” value (HSA site II) was 6.1, the IC50 (Colo205 [2]) was 68 ± 11 µM and the IC50 (Colo320 [3]; 72 h exposure) was > 100 µM. The “Selectivity ratio IC50 (Colo205)/IC50 (Colo320)” value (Colo320 [3]; calculated from IC50 values taken from ref 12) was ≤ 0.68.

In the case of `O=C1OC(c2ccc(O)c(S(=O)(=O)O)c2)(c2ccc(O)c(S(=O)(=O)O)c2)c2c(Br)c(Br)c(Br)c(Br)c21` [bromosulfophthalein, reference compound], the “effect on OATP1B1 transport” value (OATP1B1) is reported as “inhibited the transport” and the “effect on OATP2B1 transport” value (OATP2B1) is reported as “inhibited the transport”.

Molecule `COc1cccc2c1C(=O)c1c(O)c3c(c(O)c1C2=O)C[C@@](O)(C(=O)CO)C[C@@H]3O[C@H]1C[C@H](N)[C@H](O)[C@H](C)O1` [doxorubicin, reference compound] has an IC50 (MES-SA) of 0.03 ± 0.01 µM, an IC50 (MES-SA/Dx5) of 4 ± 1 µM and an IC50 (Colo205 [4]) of 0.71 ± 0.02 µM. For the same molecule, the IC50 (Colo320 [5]) was 5.4 ± 0.9 µM.
